Laboratory results taken from patent US7279548B2, “Identification and isolation of novel polypeptides having WW domains and methods of using same” (Cytogen Corporation, priority 1996, dated 2007).
No end group written: not given here. *: point of attachment. Biotin = O=C1N[C@H]2[C@H](CS[C@H]2CCCCC(=O)*)N1

Test system: WW domains of WWP1 expressed as GST fusion proteins
Experiment: ELISA based cross affinity mapping, WW domains of WWP1
Type: binding, human
Details: biotinylated peptide-streptavidin/alkaline phosphatase complex; GST fusion proteins; ELISA
Protocol: The 16 day mouse embryo cDNA expression library was diluted 1:1000 in SM solution (100 mM NaCl, 8 mM MgSOv4, 50 mM Tris HCl pH 7.5, 0.01% gelatin). To a sterile test tube, 2 μl of diluted mouse embryo library, 100 μl of 10 mM CaCl2, 100 μl of 10 mM MgCl2 and 100 μl of BL21(DE3)pLysE bacterial cells (grown overnight) were added and incubated for 30 minutes at 37° C. The contents of the tube were mixed with 3 ml of 0.6% top agarose, containing […] chloramphenicol, and poured onto a 2xYT plate (90 mm diameter). For a large primary screen, 10–20 plates were prepared with 3×10^4 pfu per plate. After 6 hours incubation at 37° C., a nitrocellulose filter soaked in 10 mM isopropyl-β-D-thiogalactopyranoside (IPTG) was overlaid on each plate and incubated 3–6 hours at 37° C. Before the filters were removed from the plates, they were marked asymmetrically with India ink in a 18 gauge syringe needle. The plates were stored at 4° C. until ready for the secondary screen. The filters were washed with PBS (137 mM NaCl, 2.7 mM KCl, 4.3 mM Na2HPO4, 1.4 mM KH2PO4)-0.05% Triton X-100 three times at room temperature, 15 minutes each wash, and then placed in a plastic bag containing non-specific blocking solution (PBS-2% BSA) for one hour. In the meantime, 1 ml of 1 mM biotinylated peptide in PBS-0.1% Tween 20 was added to 20 ml of 1 mg/ml streptavidin-alkaline phosphatase (SA-AP) in PBS-0.1% Tween 20 and incubated at 4° C. for 30 minutes. […] Excess biotin-binding sites would then be blocked by addition of 500 pmol biotin. […] Ten μl of 0.1 mM biotin would then be added, and the solution incubated for an additional 15 min.
To determine the ligand preferences of the novel WW omain-containing clones described in Sections 6.1 and 6.1.1, as well as addressing the issue of whether peptides containing PPPPY (SEQ ID NO:3)-like motifs derived from a variety of proteins could also serve as recognition units and bind to these clones, a cross affinity mapping experiment was performed (FIGS. 15A–D). The peptides shown in FIGS. 15A–D were synthesized, biotinylated, complexed with streptavidin-alkaline phosphatase, and tested in an ELISA based assay for their ability to bind to the twelve individual novel WW domains of WWP1, WWP2, WWP3 and WWP4 which were expressed as GST fusion proteins. The ELISA based cross-affinity experiments were performed essentially as described by Sparks et al. (1996, Proc. Natl. Acad. Sci. 93:1540–1544) with the following modifications. Briefly, microtiter wells were coated with 1–5 μg of fusion protein in 100 mM NaHCO3, blocked with SuperBlock TBS (Pierce) and washed four times with PBS, 0.05% Tween 20. Specific peptide-streptavidin/alkaline phosphatase complexes were added as above and unbound complexes washed five times with PBS, 0.05% Tween 20. Following addition of PNP substrate (p-nitrophenyl phosphate, Kirkegard & Perry Labs), peptide binding was quantitated after 30 min. at O.D. 405 nm. Relative binding measurements from three independent determinations were assigned to a scale as follows: O.D. units 0–0.5=(−), 0.5–1.0=(+), 1.0–2.0=(++), 2.0–3.0=(+++), >3.0=(++++). Peptide binding to human Fyn and Lyn SH3 and SH2 domains was assessed by a filter binding assay (see Section 6.1 and Sparks et al., 1996, Proc. Natl. Acad. Sci 93:1540–1544). Peptide sequences used in cross-affinity experiments correspond to segments of the following genes: RasGap (Database accession # P20936), AP-2 (P05549), p53BP-2 (U09582), IL-6Rα (P22272), voltage-gated chloride channel CLCN5 (X91906), IL-2Rγ (D111086), RSV (D10652), HTLV-1 (D13784), β-dystroglycan (L19711), Formin (X53599), amiloride-sensitive epithelial Na^+ channel ENaCα (P37089), ENaCβ (X87159) and ENaCγ (X87160), muscarinic acetylcholine receptor M4 AChR (P08173), and c-Abl (P00522). Src and Crk SH3 binding peptide sequences were derived from a phage display random peptide library screen (Section 6.1 and Sparks et al., 1996, Proc. Natl. Acad. Sci. 93:1540–1544).

Substance | binding to WW domains of WWP1
Biotin-SGSGPGTPYPPPPEFY [WBP-2B] | none of the WW domains of these proteins specifically bind
Biotin-SGSGYVQPPPPPYPGPM [WBP-2A] | specifically bind
Biotin-SGSGPGTPPPPYTVGPGY [WBP-1] | specifically bind
